Source: PubChem BioAssay (NCI)
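Results reflect a 48-hour exposure of cells in 96-well plates to compound at five concentrations. The concentration for full growth arrest is given as TGI.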 Where a SMILES comes first, the peptide text is derived from it. [ ]: non-standard residue; d: D form. The star is where a group is joined. ξ: configuration not given here. dThr(3ξ) = CC(O)[C@@H](N)C(=O)O; dNMeL = CN[C@H](CC(C)C)C(=O)O; OBn = c1ccc(CO*)cc1; ξLac = CC(O)C(=O)O

Key:
Experiment in all cases: inhibition of tumour cell growth, NCI panel, 48 h
[1] = tested on: OVCAR-4 ovarian
[2] = tested on: HOP-92 NSCLC
[3] = tested on: SW-620 colon
[4] = tested on: PC-3 prostate
[5] = tested on: T-47D breast
[6] = tested on: NCI-H23 lung
[7] = tested on: DU-145 prostate
[8] = tested on: M14 melanoma
[9] = tested on: TK-10 renal
[10] = tested on: HCT-15 colon
[11] = tested on: SF-268 CNS
[12] = tested on: SNB-19 CNS
[13] = tested on: NCI-H522 lung
[14] = tested on: OVCAR-3 ovarian
[15] = tested on: A549 NSCLC
[16] = tested on: UACC-62 melanoma
[17] = tested on: CAKI-1 renal
[18] = tested on: COLO 205 colon
[19] = tested on: UO-31 renal
[20] = tested on: MALME-3M melanoma

| SMILES | TGI [1] | TGI [2] | TGI [3] | TGI [4] | TGI [5] | TGI [6] | TGI [7] | TGI [8] | TGI [9] | TGI [10] | TGI [11] | TGI [12] | TGI [13] | TGI [14] | TGI [15] | TGI [16] | TGI [17] | TGI [18] | TGI [19] | TGI [20] |
| --- | --- | --- | --- | --- | --- | --- | --- | --- | --- | --- | --- | --- | --- | --- | --- | --- | --- | --- | --- | --- |
| CC(=O)OC(C)[C@@H](NC(=O)[C@@H](CC(C)C)N(C)C(=O)[C@@H]1CCCN1C(=O)C(C)O)C(=O)OCc1ccccc1 (stereo not given in full) (H-[ξLac]P[dNMeL][dThr(3ξ)](Ac)-OBn) | > 100 µM | > 100 µM | > 100 µM | > 100 µM | > 100 µM | > 100 µM | > 100 µM | > 100 µM | > 100 µM | > 100 µM | > 100 µM | > 100 µM | > 100 µM | > 100 µM | > 100 µM | > 100 µM | > 100 µM | > 100 µM | > 100 µM | > 100 µM |
| N#CC1=C(S)N(C2OC(CO)C(O)C(O)C2O)C(c2ccccc2)=CC1c1ccccc1 (stereo not given) | > 100 µM | > 100 µM | > 100 µM | > 100 µM | 96.7 µM | > 100 µM | > 100 µM | > 100 µM | > 100 µM | > 100 µM | > 100 µM | > 100 µM | > 100 µM | 98.5 µM | > 100 µM | 62.7 µM | > 100 µM | > 100 µM | > 100 µM | > 100 µM |
| CC1=NN(C(=O)CC(=O)Nc2ccccc2Cl)C(=O)C1N=Nc1ccc(C(=O)O)cc1 (stereo not given) | > 100 µM | > 100 µM | > 100 µM | > 100 µM | > 100 µM | > 100 µM | > 100 µM | > 100 µM | > 100 µM | > 100 µM | > 100 µM | > 100 µM | > 100 µM | > 100 µM | > 100 µM | > 100 µM | > 100 µM | > 100 µM | > 100 µM | > 100 µM |
| O=c1[nH]c(-c2cccc(F)c2)nc2ccccc12 | > 65.9 µM | > 72 µM | > 100 µM | > 100 µM | > 100 µM | > 65.8 µM | > 100 µM | > 100 µM | 58.9 µM | > 100 µM | > 100 µM | 47.2 µM | > 100 µM | > 100 µM | > 100 µM | > 67.3 µM | > 100 µM | > 100 µM | > 67.9 µM | > 100 µM |
| CC(C)OCC(O)COc1ccc2ccc(=O)oc2c1 (stereo not given) | > 100 µM | > 100 µM | > 100 µM | > 100 µM | > 100 µM | > 100 µM | > 100 µM | > 100 µM | > 100 µM | > 100 µM | > 100 µM | > 100 µM | > 100 µM | > 100 µM | > 100 µM | > 100 µM | > 100 µM | > 100 µM | > 100 µM | > 100 µM |
| CC(C)[Si](OC1=C(C(=O)Nc2ccccc2Cl)CCCCC1)(C(C)C)C(C)C | > 100 µM | > 100 µM | > 100 µM | > 100 µM | > 100 µM | > 100 µM | > 100 µM | > 100 µM | > 100 µM | > 100 µM | > 100 µM | > 100 µM | > 100 µM | > 100 µM | > 100 µM | > 100 µM | > 100 µM | > 100 µM | > 100 µM | > 100 µM |
| CC1(C)CC[C@]2(C(=O)O)CC[C@]3(C)C(=CC[C@@H]4[C@@]5(C)C[C@H](O)[C@H](O)[C@@](C)(CO)C5=CC[C@]43C)[C@@H]2C1 | 68.5 µM | > 100 µM | > 100 µM | > 100 µM | > 100 µM | > 100 µM | > 100 µM | > 100 µM | > 100 µM | > 100 µM | > 100 µM | > 100 µM | > 100 µM | > 100 µM | > 100 µM | > 100 µM | > 100 µM | 42.4 µM | > 100 µM | > 100 µM |
| Cc1cn(C2CC(O)C(Cn3cc(Cn4ncc(=O)[nH]c4=O)nn3)O2)c(=O)[nH]c1=O (stereo not given) | > 100 µM | > 100 µM | > 100 µM | > 100 µM | > 100 µM | > 100 µM | > 100 µM | > 100 µM | > 100 µM | > 100 µM | > 100 µM | > 100 µM | > 100 µM | > 100 µM | > 100 µM | > 100 µM | > 100 µM | > 100 µM | > 100 µM | > 100 µM |
| O=C1CCCC2=C(N1)C(=O)C=CC2=O | 67.6 µM | 38.8 µM | 37.9 µM | 29.9 µM | 52.7 µM | 56.7 µM | 31.2 µM | 55.1 µM | 56.9 µM | 62.6 µM | 67.9 µM | 61 µM | 34.8 µM | 64.4 µM | > 78.5 µM | 56.7 µM | 49.6 µM | 33.3 µM | 57.9 µM | 56.6 µM |
